These results are taken from patent publication US10836728B2, “Substituted 3-dialkylaminomethyl-piperidin-4-yl-benzamides and methods of making and using same” (MEBIAS DISCOVERY, INC., priority 2017, dated 2020).

Data set [1] deals with T1, human OPRM1 (μ, MOR) (Homo sapiens (Human), UniProt P35372). Description: cell-based. It is filed as cell-based. The settings on record: for Emax: OPRM1, read-out: cAMP Emax; for pEC50: PathHunter human OPRM1 Arrestin CHO-K1 cell line, read-out: cAMP EC50. The procedure:
G-protein signaling was measured via second messenger cAMP modulation. Detection of cAMP modulation was accomplished in the PathHunter human OPRM1 (μ, MOR) Arrestin CHO-K1 cell line using the Dynamic2 cAMP Kit from Cisbio.

Data set [2] concerns the target T1, human OPRM1 (μ, MOR). Nature of the data set: cell-based. It is filed as cell-based. As to conditions: for Emax: OPRM1, read-out: β-Arrestin Emax; for pEC50: PathHunter human OPRM1 Arrestin CHO-K1 cell line, read-out: β-Arrestin EC50. The procedure:
The technology is based on Enzyme Fragment Complementation (EFC) with β-galactosidase (β-Gal) as the reporter. […] EA is fused to β-arrestin-2, and ED is fused to the C-terminus of the GPCR of interest. When a ligand binds and the GPCR is activated, β-arrestin-2 is recruited to the receptor resulting in an ED/EA complementation, restoring β-Gal activity, which is measured using chemiluminescence. For this assay, the PathHunter human OPRM1 (μ, MOR) Arrestin CHO-K1 cell line was used.

Data set [3] addresses T2, MOR (Homo sapiens (Human), UniProt P35372). It is filed as cell-based. The settings on record: for ΔRA of compound: β-arrestin vs cAMP, from EC50 and Emax. How it is done:
In certain embodiments, the ability of a compound to activate G-protein or β-arrestin is not an on/off switch for a given pathway, but rather a continuous function. To capture this, each compound is measured for activity in cell assays that are linked to β-arrestin recruitment and G-protein signaling. By comparing the activity between these two measures (accounting for both EC50 and maximal response reached, Emax) a relative activity (RA) value is determined.
In the case of MOR it is desirable to have high activation of the G-protein pathway while reducing activation of β-arrestin.

For data set [4], the target named is T2, MOR. As to conditions: vs morphine; cited from earlier work.
The target in data set [5] is T2, MOR. The settings on record: cell-based assays; cited from earlier work.
The conditions of data set [6]: patients following bunionectomy; cited from earlier work.
For data set [7] the following is noted: healthy volunteers; cited from earlier work.
Another data set concerns tail flick response. Nature of the data set: Rat tail flick nociceptive pain model. It is filed as in vivo. As to conditions: SC. How it is done:
In rodents, the tail flick response to radiant heat is commonly used as a model to detect potentially useful analgesic agents.
Procedurally, the time (seconds) required to elicit a tail flick response induced by focused radiant heat is measured as the pain threshold in groups of 8 Sprague-Dawley (SD) male rats weighing 110±20 g. Prolongation by 50 percent or more (≥50) of the time required to elicit a tail flick response 15 and 30 minutes following administration of test substance indicates possible analgesic activity. Also, one-way ANOVA followed by Dunnett's test is applied for comparison between vehicle control and treatment groups.

A further data set relates to intestinal transit. Description: Gastrointestinal motility (charcoal transit). The settings on record: rat, SC. The procedure:
At 30 minutes post subcutaneous dosing, the animals were given a suspension of 5% charcoal in 10% gum arabic solution (2 ml/animal p.o.) and sacrificed 15 minutes later. The intestine was removed, and the length of the gut in cm (GL) as well as extent of charcoal movement from the pylorus to the beginning of the charcoal column in cm (CP) was measured.
Intestinal transit (IT) was calculated as IT=(CP/GL)×100%. A 30% or more (30) increase or decrease intestinal transit (IT), relative to the vehicle control group, was considered significant. The values in animals treated with test compounds compared with vehicle control group were also analyzed by using one-way ANOVA followed by Dunnett's test. Differences are considered statistically significant at P<0.05.

In the next data set the test system is place preference. Description: Conditioned place preference. The settings on record: rat, SC.
The next data set deals with sedation. Nature of the data set: Accelerating RotaRod (sedation). The settings on record: rat, SC.
The nature of data set [8]: Respiratory depression test (O2 partial pressure). As to conditions: rat, SC, at 30 minutes, vehicle 96 mm Hg.

Molecules are shown by their SMILES. pEC50: −log10 of the molar value. Like-named read-outs stand apart in the source and are kept apart here. Some results are limits rather than exact numbers.

Text for place preference: Although a number of different designs and apparatuses are used in this model, the basic characteristics of this task involve the association of a particular environment with drug treatment, followed by the association of a different environment with the absence of the drug (i.e., the drug's vehicle). A common variation of this design consists of a three-compartment chamber with the outer compartments being designed to have different characteristics (e.g., white vs. black walls, pine vs. corn bedding, horizontal grid vs. cross-grid flooring). […] On the following day, the rat is injected with the drug's vehicle and then placed in the opposite compartment. […] Afterward, a test session is conducted, which consists of placing the animal in the center compartment and then, after opening the gates to both of the outer compartments, recording the time the animal spends in each of the outer compartments during the session.
In certain embodiments, there are three days of adaptation where any preferences are assessed. Then, compartment assignments for drug or saline are based on any existing preferences. […] There are 8 days of training followed by the test day when both compartments are accessible and the computer counts how much time is spent in the respective compartment.

In the case of `CN(C)CC1CN(Cc2ccc(F)cc2Cl)CCC1(O)c1cccc(C(N)=O)c1` (centres unmarked) [(6), 3-[1-(2-Chloro-4-fluoro-benzyl)-3-dimethylaminomethyl-4-hydroxy-piperidin-4-yl]-benzamide], on human OPRM1 (μ, MOR) [1], the Emax came to 107% and the negative logarithm of the EC50 (pEC50) is 6.99. At human OPRM1 (μ, MOR) [2], the Emax stood at 40% and the pEC50 is 5.59. For the same molecule, at MOR [3], the “Bias Factor (ΔRA of compound relative to ΔRA of DAMGO) × 10” value was −2.89 and the ΔRA of compound is −1.83.
As for `CN(C)CC1CN(CCc2ccccc2)CCC1(O)c1cccc(C(N)=O)c1` (centres unmarked) [(9), 3-(3-Dimethylaminomethyl-4-hydroxy-1-phenethyl-piperidin-4-yl)-benzamide], on human OPRM1 (μ, MOR) [1], the Emax is 118% and the pEC50 is 7.47. Besides, on human OPRM1 (μ, MOR) [2], the Emax stood at 18% and the pEC50 is 6.08. In addition, at MOR [3], the “Bias Factor (ΔRA of compound relative to ΔRA of DAMGO) × 10” value is given as −6.76 and the ΔRA of compound is given as −2.22.
Take `COc1ccc(CCN2CCC(O)(c3cccc(C(N)=O)c3)C(CN(C)C)C2)cc1` (centres unmarked) [(17), 3-(3-((Dimethylamino)methyl)-4-hydroxy-1-(4-methoxyphenethyl)piperidin-4-yl)benzamide]: at human OPRM1 (μ, MOR) [1], the Emax stood at 84% and the pEC50 was 6.33. In addition, on human OPRM1 (μ, MOR) [2], the maximal effect (Emax) is under 10% and the pEC50 was under 4.00.
For `C[C@@H](NC(=O)[C@@H](N)Cc1ccc(O)cc1)C(=O)NCC(=O)N(C)[C@@H](Cc1ccccc1)C(=O)NCCO` [DAMGO, H-Tyr-D-Ala-Gly-NMe-Phe-Gly-OH, reference compound], the Emax on human OPRM1 (μ, MOR) [2] is 98%.
Turning to `COc1ccsc1CNCC[C@@]1(c2ccccn2)CCOC2(CCCC2)C1` [oliceridine, N-[(3-methoxythiophen-2-yl)methyl]-2-[(9R)-9-pyridin-2-yl-6-oxaspiro[4.5]decan-9-yl]ethanamine], the “G-protein signaling Emax” value at MOR [4] was 83%. Further, on MOR [5], the “β-arrestin recruitment Emax” value is given as 14%. Further, the Level of analgesia result in [6] is listed as “higher level of analgesia”. In data set [7], the “On-target adverse effects (such as nausea, and decrease in respiratory drive)” value is listed as “decreased on-target adverse effects”.
As to `CN(C)C[C@H]1CN(CCCc2ccc(F)cc2Cl)CC[C@]1(O)c1cccc(C(N)=O)c1` [(23a), 3-((3S,4R)-1-(3-(2-Chloro-4-fluorophenyl)propyl)-3-((dimethylamino)methyl)-4-hydroxypiperidin-4-yl)benzamide], in the data set on tail flick response, the “Dose to reach the ED80 of morphine in rat tail flick” value is listed as 4.5 mg/kg. In addition, the “Reduction in transit relative to vehicle” value in the data set on intestinal transit (4.5 mg/kg) was “no significant reduction in transit”; with intestinal transit (18 mg/kg) it was “small reduction in transit”. In addition, the “Preference for drug chamber over saline chamber” value with place preference (18 mg/kg) is reported as “no preference for the (23a) chamber over the saline chamber”. For the same molecule, the “Sedation, accelerating RotaRod” value in the data set on sedation (4.5 mg/kg) and in the data set with sedation (18 mg/kg) was “no sedation” in each case. The O2 partial pressure entry in [8] (4.5 mg/kg) and in data set [8] (18 mg/kg) was “the same O2 partial pressure as vehicle” each time.
Regarding `CN(C)CC1CN(CCc2ccsc2)CCC1(O)c1cccc(C(N)=O)c1` (centres unmarked) [(15), 3-(3-((Dimethylamino)methyl)-4-hydroxy-1-(2-(thiophen-3-yl)ethyl)piperidin-4-yl)benzamide], the Emax on human OPRM1 (μ, MOR) [1] was 95%; on human OPRM1 (μ, MOR) [2], under 10%. Besides, the pEC50 is 7.17 on human OPRM1 (μ, MOR) [1] and under 4.00 on human OPRM1 (μ, MOR) [2].
With `CN(C)C[C@H]1CN(CCc2ccsc2)CC[C@]1(O)c1cccc(C(N)=O)c1` [(41a), 3-((3S,4R)-3-((Dimethylamino)methyl)-4-hydroxy-1-(2-(thiophen-3-yl)ethyl)piperidin-4-yl)benzamide], the “Dose to reach the ED80 of morphine in rat tail flick” value in the data set on tail flick response was determined as 5 mg/kg. Further, the “Reduction in transit relative to vehicle” value in the data set on intestinal transit (5 mg/kg) and in the data set on intestinal transit (20 mg/kg) was “no significant reduction in transit” throughout. In addition, the “Preference for drug chamber over saline chamber” value with place preference (20 mg/kg) is reported as “no preference for the (41a) chamber over the saline chamber”. The “Sedation, accelerating RotaRod” value in the data set with sedation (5 mg/kg) and in the data set with sedation (20 mg/kg) was “no sedation” throughout. For the same molecule, the O2 partial pressure result in data set [8] (5 mg/kg) and in [8] (20 mg/kg) was “the same O2 partial pressure as vehicle” in each case.
Turning to `CN(C)C[C@H]1CN(Cc2ccc(F)cc2Cl)CC[C@]1(O)c1cccc(C(N)=O)c1` (single isomer, unassigned; ent-a) [Ent-A-syn-(6)], at human OPRM1 (μ, MOR) [1], the “cAMP Emax” value was found to be 132% and the pEC50 was 6.79. At human OPRM1 (μ, MOR) [2], the “β-Arrestin Emax” value was found to be 60% and the pEC50 is 5.50. For the same molecule, on MOR [3], the “Bias Factor (ΔRA of compound relative to ΔRA of DAMGO) × 10” value is given as −0.92 and the ΔRA of compound was −1.63.
`CN(C)CC1CN(CCc2ccc(O)cc2)CCC1(O)c1cccc(C(N)=O)c1` (centres unmarked) [(18), 3-(3-((Dimethylamino)methyl)-4-hydroxy-1-(4-hydroxyphenethyl)piperidin-4-yl)benzamide]: on human OPRM1 (μ, MOR) [1], the Emax stood at 103% and the pEC50 was 6.80. Further, on human OPRM1 (μ, MOR) [2], the Emax was determined as 24% and the pEC50 is 5.51. Also, at MOR [3], the “Bias Factor (ΔRA of compound relative to ΔRA of DAMGO) × 10” value is listed as −3.73 and the ΔRA of compound was −1.91.
For `CN(C)CC1CN(CCCc2ccccc2)CCC1(O)c1cccc(C(N)=O)c1` (centres unmarked) [(20), 3-[3-Dimethylaminomethyl-4-hydroxy-1-(3-phenyl-propyl)-piperidin-4-yl]-benzamide], on human OPRM1 (μ, MOR) [1], the maximal effect (Emax) worked out at 103% and the negative-log EC50 (pEC50) is 8.00. Besides, at human OPRM1 (μ, MOR) [2], the Emax was 14% and the pEC50 is 6.57. At MOR [3], the “Bias Factor (ΔRA of compound relative to ΔRA of DAMGO) × 10” value was −7.37 and the ΔRA of compound was −2.28.
As for `CN(C)C[C@@H]1CN(Cc2ccc(F)cc2Cl)CC[C@@]1(O)c1cccc(C(N)=O)c1` (single isomer, unassigned; ent-b) [Ent-B-syn-(6), Ent-B-syn 3-(1-(2-chloro-4-fluorobenzyl)-3-((dimethylamino)methyl)-4-hydroxypiperidin-4-yl)benzamide], on human OPRM1 (μ, MOR) [1], the “cAMP Emax” value is 111% and the negative logarithm of the EC50 (pEC50) is 6.33. Moreover, on human OPRM1 (μ, MOR) [2], the “β-Arrestin Emax” value was determined as 20% and the pEC50 is 5.44. In addition, on MOR [3], the “Bias Factor (ΔRA of compound relative to ΔRA of DAMGO) × 10” value was −1.06 and the ΔRA of compound is given as −1.65.
Regarding `CN(C)CC1CN(Cc2ccsc2)CCC1(O)c1cccc(C(N)=O)c1` (centres unmarked) [(11), 3-(3-Dimethylaminomethyl-4-hydroxy-1-thiophen-3-ylmethyl-piperidin-4-yl)-benzamide], on human OPRM1 (μ, MOR) [1], the Emax amounted to 112% and the pEC50 is 6.26. In addition, at human OPRM1 (μ, MOR) [2], the Emax is 37% and the negative-log EC50 (pEC50) is 4.97. Besides, on MOR [3], the “Bias Factor (ΔRA of compound relative to ΔRA of DAMGO) × 10” value is −2.31 and the ΔRA of compound is reported as −1.77.
